Where “and” joins values, the source holds several entries; their conditions need not be identical. Equal values may be shown once.
Columns and labels:
integrin α4β7 on Tregs = experiment: α4β7 expression on ex vivo expanded CD45RA+ Tregs from CD patients (flow cytometry); assay type: cell-based, human; conditions: CD4+CD25hiCD127loCD45RA+ Tregs cultured with rapamycin and high dose IL-2 plus the agonist; mean ± SD
Protocol: “Complete X-VIVO-15” (Lonza, Walkersville, MD) was used for ex vivo Treg expansion, Treg cytokine challenge experiments and Treg suppression assays. This was supplemented with 100 nM or 10 nM Rapamycin and all-trans retinoic acid (ATRA) 2 μM or 1 nM, or Rapamycin and RAR568 1 nM.
(§1) FACS-sorted Treg populations were plated at 1×10^6 or 0.5×10^6 in X-VIVO-15 medium and activated with anti-CD3/anti-CD28 coated beads (Dynabeads®, Invitrogen, Paisley, UK) at 1:1 bead: cell ratio. Rapamycin was added at day 0 of culture at a final concentration of 100 nM/L +/−ATRA 1 nM/L or RAR568 1 nM/L. Next, 1,000 IU/ml recombinant human IL-2 (rhlL-2) (Proleukin®, Novartis, Camberley, UK) was added at day 5 of culture. Cells were re-stimulated every 10-12 days and expanded for a total of 24-30 days. The phenotype and suppressive ability were assessed at the end of the culture period.
Flow cytometry panels have been designed to assess the subtypes of regulatory T cells in patients with CD as well as their expression of gut homing molecules. Gating was performed based on natural populations when assessing for CD4^+CD25^highCD127low populations, as well as for CD45RA^+ Treg populations. Additionally, to minimize bias in the assessment of expression of gut homing markers and transcription factors, a fluorochrome minus one (FMO) panel was added for each marker of interest in each experiment that was performed. […]

RARα = molecular target: T1, RARα (Homo sapiens, UniProt P10276); experiment: Selectivity profile against human RARs (RARα agonism); assay type: biochemical
T1 sequence (P10276 1-462): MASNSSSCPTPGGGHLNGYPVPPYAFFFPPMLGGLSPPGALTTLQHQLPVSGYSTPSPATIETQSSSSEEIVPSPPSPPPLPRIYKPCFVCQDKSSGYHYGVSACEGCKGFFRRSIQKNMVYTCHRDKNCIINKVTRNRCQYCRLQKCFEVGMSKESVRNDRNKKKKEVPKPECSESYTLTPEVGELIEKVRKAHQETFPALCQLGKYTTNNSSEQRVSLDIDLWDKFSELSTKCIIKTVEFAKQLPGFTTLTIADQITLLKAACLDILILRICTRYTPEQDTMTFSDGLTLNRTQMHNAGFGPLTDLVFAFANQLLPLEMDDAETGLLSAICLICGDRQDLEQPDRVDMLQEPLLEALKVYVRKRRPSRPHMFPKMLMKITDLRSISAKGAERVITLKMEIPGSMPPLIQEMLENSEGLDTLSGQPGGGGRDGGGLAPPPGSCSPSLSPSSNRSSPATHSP

FOXP3 in Tregs = experiment: FOXP3 expression of ex vivo expanded Tregs; assay type: cell-based, human; conditions: Tregs expanded in the presence of the agonist
Protocol: as §1
Flow cytometry panels have been designed to assess the subtypes of regulatory T cells in patients with CD as well as their expression of gut homing molecules. Gating was performed based on natural populations when assessing for CD4^+CD25^highCD127low populations, as well as for CD45RA^+ Treg populations. Additionally, to minimize bias in the assessment of expression of gut homing markers and transcription factors, a fluorochrome minus one (FMO) panel was added for each marker of interest in each experiment that was performed.

- EC50 (RARα): 0.59 nM
Structure (SMILES): CCOc1c(Cl)cc(C(=O)Nc2ccc(C(=O)O)c(C)c2)cc1OC(C)C [RAR568]
- α4β7 expression of expanded Tregs (integrin α4β7 on Tregs): 95.9±1.93 and 95.89±1.93
- FOXP3 expression of expanded Tregs (FOXP3 in Tregs; mean ± SD): 96.99% ±3.51
- FOXP3 expression, range (FOXP3 in Tregs; range): 91.5-99.8

Reference: patent US20220062340A1, “IMMUNOTHERAPEUTIC METHODS AND COMPOSITIONS” (KING'S COLLEGE LONDON, priority 2018, published 2022)
